The subject of one assay is Clinical Isolates. Briefly: Reversal of Multi-Drug Resistance (MIC/FIC of antibiotics combined with compound 1). It is filed as cell-based, Staphylococcus aureus. The note with it: for MIC: Staphylococcus aureus, read-out: MIC (a); for MIC / MIC (a): antibiotic alone; for FIC (s): FIC (a) + FIC (b), antibiotic plus Compound 1; for FIC (b): FIC of Compound 1 in combination with the antibiotic named as label; for FIC (a): FIC of the antibiotic = MIC in combination with Compound 1 / MIC alone. As to the method:
(§1) Assay Protocol: Protocol of Chung et al, (2001), with slight modifications, was followed. 5×10 MDR S. aureus cells were treated with 20 μg/mL of test compounds and incubated for 20 hours. Control cells were not exposed to any test compound and antibiotic. In 96-well plate, increasing concentration of antibiotics, along with the fixed concentration of test compounds were added. Inoculum of 5×10^5 cells was applied to all wells. The presence or absence of growth in all combination wells were noted visually and by using the dye Alamar blue.
(§2) Fractional inhibitory concentrations were calculated by the above cited formulae. • FIC of Antibiotic a (FICa)=MIC of Antibiotic a in combination/MIC of antibiotic a alone • FIC of Compound b (FICb)=MIC of Compound b in combination/MIC of compound b alone
(§3) The sum of Fractional Inhibitory Concentration (FICs) index of: (FICa)+(FICb)=(FICs)

A further assay deals with EMRSA-17. The assay is described as above. The conditions noted are these: for FIC (s): FIC (a) + FIC (b), antibiotic plus Compound 1; for FIC (b): FIC of Compound 1 in combination with the antibiotic named as label; for MIC: Staphylococcus aureus, read-out: MIC (a); for MIC / MIC (a): antibiotic alone; for FIC (a): FIC of the antibiotic = MIC in combination with Compound 1 / MIC alone. The class given is cell-based, Staphylococcus aureus. As for the experimental part: as §1, §2, §3

The mark [1] stands for this setting: antibiotic in combination with Compound 1.
The mark [2] stands for this setting: antibiotic in combination with Compound 1, listed as clindamycin.

The MIC is the least concentration at which growth counts as inhibited. As for `NCC[C@H](O)C(=O)N[C@@H]1C[C@H](N)[C@@H](O[C@H]2O[C@H](CN)[C@@H](O)[C@H](O)[C@H]2O)[C@H](O)[C@H]1O[C@H]1O[C@H](CO)[C@@H](O)[C@H](N)[C@H]1O` [Amikacin], in the assay on Clinical Isolates, the minimal inhibitory concentration (MIC) came out at 128 µg/mL. Further, in the assay with Clinical Isolates (setting [1]), the Effect result is given as “Partial”. Besides, in the assay with EMRSA-17, the FIC (s) came to 0.351 and the FIC (b) stood at 0.32. Further, in the assay with EMRSA-17 (setting [1]), the Effect entry was “Synergistic” and the “MIC (a + b)” value was 8 µg/mL.
Turning to `O=C(N[C@H](CO)[C@H](O)c1ccc([N+](=O)[O-])cc1)C(Cl)Cl` [Chloramphenicol], the minimal inhibitory concentration (MIC) with Clinical Isolates came out at 1020 µg/mL. Moreover, in the assay with Clinical Isolates (setting [1]), the Effect entry is on record as “Synergistic” and the “MIC (a + b)” value was determined as 8 µg/mL. In addition, in the assay with EMRSA-17, the FIC (s) was found to be 0.328, the FIC (b) was 0.32 and the MIC worked out at 1020 µg/mL. In the assay on EMRSA-17 (setting [1]), the Effect entry is “Synergistic” and the “MIC (a + b)” value was determined as 8 µg/mL.
On to `O=C(O)c1cn(C2CC2)c2cc(N3CCNCC3)c(F)cc2c1=O` [Ciprofloxacin], for which, in the assay on EMRSA-17, the FIC (s) turned out to be 0.164 and the FIC (b) amounted to 0.16. For the same compound, in the assay on EMRSA-17 (setting [1]), the Effect result is listed as “Synergistic” and the “MIC (a + b)” value came out at 4 µg/mL.
As to `CCC[C@@H]1C[C@@H](C(=O)N[C@@H]([C@H]2O[C@H](SC)[C@H](O)[C@@H](O)[C@H]2O)[C@H](C)Cl)N(C)C1` [Clindamicin], the “MIC (a)” value in the assay on Clinical Isolates was 4096 µg/mL; in the assay with EMRSA-17, 4096 µg/mL; in the assay on EMRSA-17 (listed as clindamycin) it was 1024 µg/mL. Also, the Effect entry in the assay with Clinical Isolates (setting [1]) was “Synergistic”; in the assay on Clinical Isolates (setting [2]), “partial synergistic activity”; in the assay with EMRSA-17 (setting [1]), “Synergistic”. Moreover, the figures for the “MIC (a + b)” value with Clinical Isolates (setting [1]), in the assay with Clinical Isolates (setting [2]) and in the assay on EMRSA-17 (setting [1]) were 16 µg/mL, 8 µg/mL and 8 µg/mL, respectively. Further, the FIC (s) in the assay with EMRSA-17 was determined as 0.322. The FIC (b) with EMRSA-17 was 0.32.
On to `CC[C@H]1OC(=O)[C@H](C)[C@@H](O[C@H]2C[C@@](C)(OC)[C@@H](O)[C@H](C)O2)[C@H](C)[C@@H](O[C@@H]2O[C@H](C)C[C@H](N(C)C)[C@H]2O)[C@](C)(O)C[C@@H](C)C(=O)[C@H](C)[C@@H](O)[C@]1(C)O` [Erythromycin], for which the minimal inhibitory concentration (MIC) with Clinical Isolates is 2050 µg/mL. Moreover, in the assay with Clinical Isolates (setting [1]), the Effect result is listed as “Synergistic” and the “MIC (a + b)” value stood at 8 µg/mL. In the assay on EMRSA-17, the FIC (s) was found to be 0.324, the FIC (b) came to 0.32 and the minimum inhibitory concentration (MIC) worked out at 1020 µg/mL. Further, in the assay on EMRSA-17 (setting [1]), the Effect entry was “Synergistic” and the “MIC (a + b)” value came out at 8 µg/mL.
`Cc1onc(-c2ccccc2)c1C(=O)N[C@@H]1C(=O)N2[C@@H]1SC(C)(C)[C@@H]2C(=O)O` [Oxacillin]: in the assay on Clinical Isolates, the minimal inhibitory concentration (MIC) turned out to be 2080 µg/mL. For the same compound, the Effect result in the assay with Clinical Isolates (setting [1]) was “Synergistic”. Besides, in the assay on EMRSA-17, the FIC (s) was determined as 0.0809, the FIC (b) was 0.08 and the MIC stood at 4100 µg/mL. Moreover, in the assay with EMRSA-17 (setting [1]), the Effect entry was “Synergistic” and the “MIC (a + b)” value was determined as 2 µg/mL.
In the case of `[H]/N=C(/N)N[C@H]1[C@H](O)[C@@H](O)[C@H](O[C@@H]2O[C@@H](C)[C@](O)(C=O)[C@H]2O[C@@H]2O[C@@H](CO)[C@H](O)[C@@H](O)[C@@H]2NC)[C@@H](N/C(N)=N\[H])[C@@H]1O` [Streptomycin], the MIC in the assay with Clinical Isolates amounted to 2050 µg/mL; in the assay on EMRSA-17 it was 2080 µg/mL. In addition, the Effect result is “Synergistic” with Clinical Isolates (setting [1]); “Partial” with EMRSA-17 (setting [1]); “partial synergistic effect” in the assay with EMRSA-17 (antibiotic in combination with Compound 1, listed as streptomycin). Further, in the assay with EMRSA-17, the FIC (s) turned out to be 0.647. Also, the FIC (b) with EMRSA-17 was 0.64. Moreover, in the assay with EMRSA-17 (setting [1]), the “MIC (a + b)” value was 16 µg/mL.
Consider `Cc1cc(NS(=O)(=O)c2ccc(N)cc2)no1` [Sulfamethoxazole], for which the minimal inhibitory concentration (MIC) with Clinical Isolates came to 2050 µg/mL. For the same compound, the Effect result with Clinical Isolates (setting [1]) is reported as “Synergistic”. Moreover, in the assay on EMRSA-17, the FIC (s) was found to be 0.324, the FIC (b) came out at 0.32 and the MIC turned out to be 2080 µg/mL. In addition, in the assay on EMRSA-17 (setting [1]), the Effect entry is listed as “Synergistic” and the “MIC (a + b)” value was 8 µg/mL.
Consider Gentamicin, for which, in the assay with Clinical Isolates, the “FIC (s)” value is 0.3356, the “FIC (b)” value amounted to 0.320, the “FIC (a)” value was found to be 0.0156 and the “MIC (a)” value came to 512 µg/mL. In the assay on Clinical Isolates (setting [1]), the Effect result is recorded as “Synergistic” and the “MIC (a + b)” value came to 8 µg/mL. Also, in the assay with EMRSA-17, the FIC (s) was determined as 0.164, the FIC (b) came out at 0.16, the “FIC (a)” value is 0.0039 and the “MIC (a)” value stood at 512 µg/mL. In the assay on EMRSA-17 (setting [1]), the Effect result was “Synergistic” and the “MIC (a + b)” value stood at 4 µg/mL.
Consider Neomycin, for which, in the assay on Clinical Isolates, the “FIC (b)” value is listed as 0.320 and the “FIC (a)” value is 0.0078. Also, in the assay with Clinical Isolates (setting [1]), the Effect result is reported as “Synergistic” and the “MIC (a + b)” value amounted to 8 µg/mL. Further, in the assay on EMRSA-17, the FIC (s) was 0.336, the FIC (b) worked out at 0.32, the “FIC (a)” value is on record as 0.1562 and the “MIC (a)” value came out at 512 µg/mL. Besides, in the assay on EMRSA-17 (listed as neomycin), the “MIC (a)” value was 256 µg/mL. Besides, in the assay with EMRSA-17 (setting [1]), the Effect entry is reported as “Synergistic” and the “MIC (a + b)” value is 8 µg/mL.
On to Penicillin, for which, in the assay on Clinical Isolates, the “FIC (s)” value came to 0.3238, the “FIC (b)” value was 0.320, the “FIC (a)” value stood at 0.0038 and the “MIC (a)” value was 2084 µg/mL. In the assay on Clinical Isolates (setting [1]), the Effect entry is listed as “Synergistic” and the “MIC (a + b)” value turned out to be 8 µg/mL. Moreover, in the assay with EMRSA-17, the FIC (s) amounted to 0.164, the FIC (b) came to 0.16, the “FIC (a)” value was determined as 0.0039 and the “MIC (a)” value amounted to 2084 µg/mL. For the same compound, in the assay on EMRSA-17 (setting [1]), the Effect result is “Synergistic” and the “MIC (a + b)” value was 4 µg/mL.

For the origin of these results see patent publication US8889733B2, “Artonin I to treat resistant infectious Staphylococcus aureus” (priority 2013, dated 2014).
